In patent publication US9987242B2, “Treatment of Levodopa-induced Dyskinesias” (NORTHWESTERN UNIVERSITY, priority 2015, dated 2018):
“Also recorded” adds a separate entry of the source.

Columns and labels:
Format in all cases: cell-based, mice
[1] = tested on: dSPN glutamatergic synapses; assay: Spike-timing-dependent LTD induction (post-pre pairing) in dSPNs, ex vivo corticostriatal slices, perforated-patch or whole-cell recording
Description: Male C57Bl/6 and FVB mice expressing tdTomato or eGFP under control of either the Drd1 or Drd2 receptor regulatory elements were used. All the mice used for the study were hemizygous for these transgenes. For some experiments, D1-tdTomato BAC mice were crossed with a transgenic line expressing Cre recombinase under control of the ChAT promoter. All mice were 8-10 weeks of age before stereotaxic surgery. Animal use procedures were reviewed and approved by the Northwestern Institutional Animal Care and Use Committee.
Slices were then transferred to a holding chamber containing aCSF. After an incubation period at 34° C. for 30 min, the slices were then kept in the holding chamber at the room temperature for another 30 min before use.
Individual slices were transferred to a recording chamber and were continuously perfused (2-3 ml min^−1) with aCSF for the duration of the experiment. Experiments were performed in the dorsolateral striatum at elevated temperature (30-31° C.).
All the recordings were made using a MultiClamp 700 A amplifier, and signals were filtered at 2 kHz and digitized at 10 kHz. Data were excluded when the series resistance changed >20% over the time course of the experiment. […] Capacitance current was continuously monitored during perforation by applying a 5-10 mV pulse from a holding potential of −70 mV. The amplifier bridge circuit was adjusted to compensate for series resistance and continuously monitored during recordings. Electrode capacitance was also compensated. Data were excluded when the input resistance (Ri) changed >20% over the time course of the experiment.
Data analysis was conducted with Igor Pro 6 (Wavemetrics, Lake Oswego, Oreg.) and Clampfit 9 (Molecular Devices). EPSP amplitude was calculated from 50-60 sweeps immediately before the start of induction and 20-30 min after the end of induction. The change in EPSP amplitude was calculated by averaging EPSP values after the induction and normalized to the average baseline EPSP amplitude. Compiled data were expressed as mean±s.e.m. Statistical tests were performed using Excel (Microsoft, Redmond, Wash.) and SigmaStat (Systat, San Jose, Calif.). Non-parametric Mann-Whitney or Wilcoxon tests were used to assess the experiment results, using a probability threshold of 0.05.
To determine if M4Rs were modulating synaptic plasticity, a spike-timing-dependent plasticity (STDP) paradigm was used. […] Once identified, neurons were monitored and controlled with perforated-patch recording to preserve intracellular signaling mechanisms and to allow stable, long-term monitoring of synaptic strength (FIG. 1A).
Synaptic plasticity was induced by pairing local stimulation of glutamatergic afferent fibers with postsynaptic spikes evoked by short bursts of intracellular current injection that were repeated at 5 Hz (FIGS. 1B, 4A).

[2] = tested on: dSPN glutamatergic synapses; assay: Spike-timing-dependent LTP induction (pre-post pairing) in dSPNs, ex vivo slices; conditions: VU10010 5 μM
[3] = tested on: dSPN glutamatergic synapses; assay: Depotentiation of established LTP by low-frequency stimulation (2 Hz, 10 min) in dSPNs; conditions: VU10010 5 μM
[4] = tested on: NMDAR-mediated Ca2+ transients in dSPN spines; assay: NMDAR-mediated Ca2+ transients in dSPN spines, two-photon glutamate uncaging and Fluo-5F imaging
Description: dSPNs were identified by somatic tdTomato expression using two-photon excited fluorescence that was induced and detected using a Prairie Ultima laser scanning microscope system (Prairie Technologies). Fluorescent and bright-field images were viewed in register using a Dodt contrast detector system. Cells were patched using video microscopy with a Hitachi CCD camera and an Olympus 60×/1.0 NA lens. Green (Fluo 5F) and red (tdTomato; Alexa 568) signals were acquired using 810 nm excitation (Verdi/Mira laser). Following patch rupture the internal solution was allowed to equilibrate for 10-15 minutes before imaging. High magnification z-series of dendrite regions 50-100 μm from the soma were acquired with 0.072 μm2 pixels with 4 μs dwell time and 0.3 μm z-steps. […]
dSPNs were loaded with 25 μM Alexa 568 and 300 μM Fluo 5F via the internal recording solution, containing (in mM): 120 CsMeSO3, 5 NaCl, 10 TEA-Cl, 10 HEPES, 5 QX-314, 4 ATP-Mg and 0.3 GTP-Na. […] Changes in Fluo 5F fluorescence were averaged from 3 trials and measured as ΔF/Fo.
Glutamate uncaging was achieved using a Verdi/Mira (Coherent Laser Group, Santa Clara, Calif.) (Plotkin et al., 2014). […] Photolysis power was tuned via a third Pockels cell modulator (Con Optics, Danbury, Conn.) to achieve uEPSCs≤5 pA. uEPSC amplitudes were measured from averaged (3-5 repetitions) traces. […]

## Cc1cc(C)c2c(N)c(C(=O)NCc3ccc(Cl)cc3)sc2n1 [VU10010]
[1]; VU10010 5 μM, no D1R antagonist, 20 repetitions of pairing
  LTD induction in dSPNs (EPSP amplitude): did not lead to LTD induction
[1]; VU10010 5 μM, no D1R antagonist, 60 repetitions of pairing
  LTD induction in dSPNs (EPSP amplitude): LTD induction was robust; also recorded: LTD was induced
[1]; physostigmine 10 μM co-applied with VU10010 5 μM, 20 repetitions
  LTD induction in dSPNs (EPSP amplitude): LTD was induced
[2]; dyskinetic (LID) mice
  STDP LTP induction in dSPNs: blocked the induction of STDP LTP; also recorded: LTP was disrupted
[2]; naive mice
  STDP LTP induction in dSPNs: disrupted STDP LTP induction; also recorded: LTP induction was also blocked
[3]; dyskinetic (LID) mice, no D1R antagonist
  depotentiation by LFS in dSPNs: restored depotentiation
[3]; naive mice
  depotentiation by LFS in dSPNs: Depotentiation also was achieved; also recorded: promoted the reversal of established LTP
[4]; SKF81297 3 μM, then muscarine and the M4R PAM co-applied, n=12
  decrease of NMDAR-mediated Ca2+ transients: ~40%
[4]; VU10010 5 μM, dSPNs from LID mice
  NMDAR-mediated Ca2+ transients: reduced NMDAR-mediated Ca2+ transients
